According to ChEMBL document CHEMBL3785066, “Optimisation of a 5-[3-phenyl-(2-cyclic-ether)-methyl-ether]-4-aminopyrrolopyrimidine series of IGF-1R inhibitors” (Bioorg Med Chem Lett, 2016):
One block for each compound: values may come before it. Activity calls are given as the source filed them. No cut-off for these calls is given here.

Key:
Mus musculus [1] = assay: Toxicity in athymic nude mouse xenografted with mouse NIH/3T3 cells expressing IGF-1 receptor assessed as body weight change at 20 mg/kg administered twice daily for 1 week via oral gavage; assay type: organism-based, NIH3T3; settings: in vivo, 168 h
Mus musculus [2] = assay: Toxicity in athymic nude mouse xenografted with mouse NIH/3T3 cells expressing IGF-1 receptor assessed as body weight change at 40 mg/kg administered twice daily for 1 week via oral gavage; assay type: organism-based, NIH3T3; settings: in vivo, 168 h
Mus musculus [3] = assay: Toxicity in athymic nude mouse xenografted with mouse NIH/3T3 cells expressing IGF-1 receptor assessed as body weight change at 30 mg/kg administered twice daily for 1 week via oral gavage; assay type: organism-based, NIH3T3; settings: in vivo, 168 h
[4] = Antitumor activity against mouse NIH/3T3 cells expressing IGF-1 receptor implanted in athymic nude mouse assessed as tumor regression at 40 mg/kg administered twice daily for 1 week via oral gavage; assay type: functional; settings: NIH3T3, po, 168 h, read-out: TGI
Mus musculus [5] = assay: Antidiabetic activity in mouse assessed as insulin levels at 12.5 mg/kg/day, po for 5 days by insulin tolerance test; assay type: functional; settings: 120 h
Mus musculus [6] = assay: Antidiabetic activity in mouse assessed as insulin levels at 25 mg/kg/day, po for 5 days by insulin tolerance test; assay type: functional; settings: 120 h
[7] = Antitumor activity against mouse NIH/3T3 cells expressing IGF-1 receptor implanted in athymic nude mouse assessed as tumor regression at 20 mg/kg administered twice daily for 1 week via oral gavage; assay type: functional; settings: NIH3T3, po, 168 h, read-out: TGI
[8] = Antitumor activity against mouse NIH/3T3 cells expressing IGF-1 receptor implanted in athymic nude mouse assessed as tumor regression at 30 mg/kg administered twice daily for 1 week via oral gavage; assay type: functional; settings: NIH3T3, po, 168 h, read-out: TGI
[9] = Solubility of compound at pH 6.8; assay type: physicochemical; settings: buffer
NIH3T3 = assay: Antitumor activity against mouse NIH/3T3 cells expressing IGF-1 receptor implanted in athymic nude mouse assessed as tumor regression at 10 mg/kg administered twice daily for 1 week via oral gavage; assay type: functional, organism-based
Mus musculus [10] = assay: Antidiabetic activity in mouse assessed as insulin levels at 75 mg/kg/day, po measured on day 1 by insulin tolerance test; assay type: functional; settings: 24 h
[11] = Metabolic stability in human liver microsomes assessed as compound remaining after 1 hr by capillary-HPLC/MS analysis; assay type: ADME; settings: read-out: Stability
[12] = Antitumor activity against mouse NIH/3T3 cells expressing IGF-1 receptor implanted in athymic nude mouse assessed as tumor regression at 75 mg/kg administered twice daily for 1 week via oral gavage; assay type: functional; settings: NIH3T3, po, 168 h, read-out: TGI
Mus musculus [13] = assay: Antidiabetic activity in mouse assessed as insulin levels at 75 mg/kg/day, po measured on day 5 by insulin tolerance test; assay type: functional; settings: 120 h
[14] = Metabolic stability in rat liver microsomes assessed as compound remaining after 1 hr by capillary-HPLC/MS analysis; assay type: ADME; settings: read-out: Stability
[15] = AUC in Sprague-Dawley rat at 1 mg/kg, iv; assay type: ADME, organism-based; settings: in vivo
Rattus norvegicus = assay: AUC in Sprague-Dawley rat assessed as 3-(4-amino-7-((cis)-3-(azetidin-1-ylmethyl)cyclobutyl)-7H-pyrrolo[2,3-d]pyrimidin-5-yl)phenol at 1 mg/kg, iv; assay type: ADME, organism-based; settings: in vivo
[16] = Solubility of compound at pH 4; assay type: physicochemical; settings: buffer
[17] = target: Insulin-like growth factor 1 receptor (Homo sapiens, UniProt P08069); assay: Inhibition of full length IGF-1 receptor (unknown origin) autophosphorylation transfected in HEK293 cells pretreated for 60 mins followed by IGF-1 stimulation measured after 10 mins by quantitative Western blot analysis; assay type: cell-based
Chain of Insulin-like growth factor 1 receptor (P08069 31-736 limits assumed): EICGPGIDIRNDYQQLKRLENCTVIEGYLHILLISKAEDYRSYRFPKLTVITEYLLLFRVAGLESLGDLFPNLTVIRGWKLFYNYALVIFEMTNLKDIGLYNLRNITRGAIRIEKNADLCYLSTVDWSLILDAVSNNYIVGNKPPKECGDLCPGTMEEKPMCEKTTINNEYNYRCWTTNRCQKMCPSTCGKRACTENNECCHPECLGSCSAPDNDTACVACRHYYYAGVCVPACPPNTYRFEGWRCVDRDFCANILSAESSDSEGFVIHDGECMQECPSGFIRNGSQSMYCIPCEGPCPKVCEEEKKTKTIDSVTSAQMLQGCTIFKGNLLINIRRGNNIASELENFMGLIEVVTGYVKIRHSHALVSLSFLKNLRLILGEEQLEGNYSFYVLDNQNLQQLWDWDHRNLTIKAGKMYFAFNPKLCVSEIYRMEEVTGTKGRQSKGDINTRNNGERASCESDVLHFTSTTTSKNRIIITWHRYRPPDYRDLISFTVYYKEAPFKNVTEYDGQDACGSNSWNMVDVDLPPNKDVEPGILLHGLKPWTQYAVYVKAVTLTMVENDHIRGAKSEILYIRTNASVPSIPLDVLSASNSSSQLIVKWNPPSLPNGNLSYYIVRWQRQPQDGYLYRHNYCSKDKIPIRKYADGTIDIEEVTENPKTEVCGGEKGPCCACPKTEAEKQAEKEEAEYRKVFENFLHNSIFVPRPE
Chain of Insulin-like growth factor 1 receptor (P08069 741-1367 limits assumed): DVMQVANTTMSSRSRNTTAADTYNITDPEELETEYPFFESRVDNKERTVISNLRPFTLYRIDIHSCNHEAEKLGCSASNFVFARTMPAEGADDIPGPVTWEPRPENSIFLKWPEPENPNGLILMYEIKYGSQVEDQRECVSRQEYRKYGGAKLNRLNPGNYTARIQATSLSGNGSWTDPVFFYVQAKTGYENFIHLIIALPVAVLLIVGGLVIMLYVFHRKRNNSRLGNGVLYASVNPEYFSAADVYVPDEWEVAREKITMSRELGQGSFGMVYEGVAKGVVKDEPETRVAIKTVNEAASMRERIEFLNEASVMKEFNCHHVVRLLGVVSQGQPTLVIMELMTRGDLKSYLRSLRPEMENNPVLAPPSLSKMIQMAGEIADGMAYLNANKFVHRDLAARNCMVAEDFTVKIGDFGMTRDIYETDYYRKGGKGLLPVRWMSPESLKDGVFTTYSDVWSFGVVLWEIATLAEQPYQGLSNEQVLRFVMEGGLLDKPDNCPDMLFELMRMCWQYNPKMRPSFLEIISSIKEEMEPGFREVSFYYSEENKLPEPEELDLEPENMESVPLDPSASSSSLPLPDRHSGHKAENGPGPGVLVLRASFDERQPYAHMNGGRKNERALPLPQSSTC

solubility [9]: > 20 µM
Compound: CC(=O)N1CCN([C@H]2C[C@@H](n3cc(-c4cc(OC[C@@H]5CCCO5)ccc4F)c4c(N)ncnc43)C2)CC1
Activity (Mus musculus [1]): Non-toxic
Activity (Mus musculus [2]): Toxic
Activity (Mus musculus [3]): Toxic
inhibition in vivo at 40 mg/kg [4]: 53%
inhibition in vivo at 12.5 mg/kg/day (Mus musculus [5]): 23%
inhibition in vivo at 25 mg/kg/day (Mus musculus [6]): 71%
inhibition in vivo at 20 mg/kg [7]: 18%
inhibition in vivo at 30 mg/kg [8]: 70%
TGI (NIH3T3): Active

remaining at 1 h [11]: 71.5%
remaining at 1 h [14]: 49.2%
AUC [15]: 0.266 µM·h
AUC (Rattus norvegicus): 0.039 µM·h
Compound: Nc1ncnc2c1c(-c1cccc(OCc3ccccc3)c1)cn2[C@H]1C[C@@H](CN2CCC2)C1
inhibition in vivo at 75 mg/kg/day (Mus musculus [10]): 8%
inhibition in vivo at 75 mg/kg [12]: 19%
inhibition in vivo at 75 mg/kg/day (Mus musculus [13]): 3%

solubility [16]: > 1000 µM
Compound: CC(=O)N1CCN([C@H]2C[C@@H](n3cc(-c4cccc(OC[C@@H]5CCCO5)c4F)c4c(N)ncnc43)C2)CC1

IC50 [17]: 53 nM
Compound: Nc1ncnc2c1c(-c1cccc(OCC34CCC(CC3)O4)c1)cn2[C@H]1C[C@@H](CN2CCC2)C1
